Source: patent US5138069A (E. I. Du Pont de Nemours and Company, priority 1988, dated 1992)
pIC50: −log10 of the molar value. Where a name gives a salt, the structure may show the parent alone. Read-outs that look alike come from different tables or passages of the source.

Columns and labels:
AII receptor = test: Angiotensin II receptor binding (displacement of 3H-AII); details: read-out: Angiotensin II Receptor Binding IC50, rat adrenal cortical microsomes, 2 nM 3H-AII, 1 hour, room temperature
How it was run: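 The receptor source was rat adrenal cortical microsomes in Tris buffer, incubated with 2 nM ³H-AII plus or minus test compound for 1 h at room temperature. Bound and free ligand were separated by rapid filtration on glass-fibre filters. Filter-bound ³H-AII was counted by scintillation.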

Renal Hypertensive Rats = test: Antihypertensive effects in renal hypertensive rats; format: in vivo; details: Rattus norvegicus; for minimal effective dose at 10 mg/kg / minimal effective dose at 100 mg/kg: Table 25; for minimal effective dose at 10 mg/kg / minimal effective dose at 3 mg/kg: intravenous; for minimal effective dose at 10 mg/kg: 10 mg/kg or less; for minimal effective dose at 100 mg/kg / minimal effective dose at 30 mg/kg: oral; for minimal effective dose at 100 mg/kg: 100 mg/kg or less; for minimal effective dose at 3 mg/kg / minimal effective dose at 30 mg/kg: Table 26
How it was run: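 Renal hypertensive rats (renin-driven AII elevation) dosed orally at 100 mg/kg and/or i.v. via jugular cannula at 10 mg/kg; a second set used 30 mg/kg oral and 3 mg/kg i.v. Arterial pressure recorded continuously via carotid cannula and compared with pretreatment levels.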

[1] = Table 25, tested as sodium salt

CCCCc1nc(Cl)c(Cc2nnn[nH]2)n1Cc1ccc(C(=O)c2ccccc2C(=O)O)cc1 [Example 208, 2-Butyl-1-[4-(2-carboxybenzoyl)benzyl]-4-chloro-5-[(1H-tetrazol-5-yl)methyl]imidazole]
pIC50 (AII receptor; [1]): 6.48
minimal effective dose at 10 mg/kg (Renal Hypertensive Rats; tested as sodium salt): < 10 mg/kg
minimal effective dose at 100 mg/kg (Renal Hypertensive Rats; tested as sodium salt): > 100 mg/kg

CCCCc1nc(Cl)c(CNS(C)(=O)=O)n1Cc1ccc(C(=O)c2ccccc2C(=O)O)cc1 [Example 215]
pIC50 (AII receptor; [1]): 6.70
minimal effective dose at 10 mg/kg (Renal Hypertensive Rats; tested as sodium salt): < 10 mg/kg
minimal effective dose at 100 mg/kg (Renal Hypertensive Rats; tested as sodium salt): > 100 mg/kg

CCCCc1nc(Cl)c(/C=C/CO)n1Cc1ccc(NC(=O)c2ccccc2C(=O)O)cc1 [Example 227, 3-[1-(4-(2-Carboxybenzamido)-benzyl)-2-butyl-4-chloroimidazol-5-yl]-propen-1-ol, E isomer]
pIC50 (AII receptor; Table 25): 6.96
minimal effective dose at 10 mg/kg (Renal Hypertensive Rats): < 10 mg/kg

CCCCc1nc(Cl)c(/C=C/C(C)O)n1Cc1ccc(-c2ccccc2C(=O)OC)cc1 (stereo not drawn) [Example 229, 4-[1-(2'-Carbomethoxybiphenyl-4-yl)methyl-2-butyl-4-chloroimidazol-5-yl]-3-buten-2-ol, E isomer]
pIC50 (AII receptor; Table 25): 5.68
minimal effective dose at 10 mg/kg (Renal Hypertensive Rats): < 10 mg/kg
minimal effective dose at 100 mg/kg (Renal Hypertensive Rats): < 100 mg/kg

CCCCc1nc(Cl)c(/C=C/c2ccccc2)n1Cc1ccc(NC(=O)c2ccccc2C(=O)O)cc1 [Example 230, 1-[4-(2-Carboxybenzamido)-benzyl]-2-butyl-4-chloro-5-(2-phenylethen-1-yl)imidazole, E isomer]
pIC50 (AII receptor; Table 25): 5.80
minimal effective dose at 10 mg/kg (Renal Hypertensive Rats): < 10 mg/kg

CCCCc1nc(Cl)c(/C=C/COC(C)=O)n1Cc1ccc(NC(=O)c2ccccc2NS(=O)(=O)C(F)(F)F)cc1 [Example 232, 3-[1-(4-((N-Trifluoromethanesulfonyl)-anthranilamido)benzyl)-2-butyl-4-chloroimidazol-5-yl]-3-propen-1-ol acetate, E isomer]
pIC50 (AII receptor; Table 25): 6.29
minimal effective dose at 10 mg/kg (Renal Hypertensive Rats): < 10 mg/kg

CCCCc1nc(Cl)c(/C=C/CO)n1Cc1ccc(NC(=O)c2ccccc2NS(=O)(=O)C(F)(F)F)cc1 [Example 233, 3-[1-(4-((N-trifluoromethanesulfonyl)-anthranilamido)benzyl)-2-butyl-4-chloroimidazol-5-yl]-propen-1-ol, E isomer]
pIC50 (AII receptor; Table 25): 6.22
minimal effective dose at 10 mg/kg (Renal Hypertensive Rats): < 10 mg/kg
minimal effective dose at 100 mg/kg (Renal Hypertensive Rats): < 100 mg/kg

CCCCc1nc(Cl)c(CCC(=O)OC)n1Cc1ccc(NC(=O)c2ccccc2C(=O)O)cc1 [Example 234, 3-[2-Butyl-4-chloro-1-(4-(2-carboxybenzamido)benzyl)imidazol-5-yl]-propanoic acid methyl ester]
pIC50 (AII receptor; Table 25): 7.19
minimal effective dose at 10 mg/kg (Renal Hypertensive Rats): < 10 mg/kg
minimal effective dose at 100 mg/kg (Renal Hypertensive Rats): > 100 mg/kg

CCCCc1nc(Cl)c(CCC(=O)OC)n1Cc1ccc(NC(=O)c2ccccc2NS(=O)(=O)C(F)(F)F)cc1 [Example 235, 3-[2-Butyl-4-chloro-1-(4-((N-trifluoromethanesulfonyl)anthranilamido)benzyl)imidazol-5-yl]-propanoic acid methyl ester]
pIC50 (AII receptor; Table 25): 6.80
minimal effective dose at 10 mg/kg (Renal Hypertensive Rats): < 10 mg/kg
minimal effective dose at 100 mg/kg (Renal Hypertensive Rats): > 100 mg/kg

CCCCc1nc(Cl)c(CC(C)C(=O)OC(C)C)n1Cc1ccc(NC(=O)c2ccccc2NS(=O)(=O)C(F)(F)F)cc1 (centres unmarked) [Example 237, 3-[1-(4-((N-trifluoromethanesulfonyl)anthranilamido)benzyl)-2-butyl-4-chlorimidazol-5-yl]-2-methylpropanoic acid, isopropyl ester]
pIC50 (AII receptor; Table 25): 6.92
minimal effective dose at 10 mg/kg (Renal Hypertensive Rats): < 10 mg/kg
minimal effective dose at 100 mg/kg (Renal Hypertensive Rats): > 100 mg/kg

CCCCc1nc(Cl)c(C(=O)O)n1Cc1ccc(-c2ccccc2C(=O)O)cc1 [Example 240, 1-[(2'-Carboxybiphenyl-4-yl)methyl]-2-butyl-4-chloroimidazole-5-carboxylicacid]
pIC50 (AII receptor; Table 25): 7.04
minimal effective dose at 10 mg/kg (Renal Hypertensive Rats): < 10 mg/kg

CCCCc1nc(C(F)(F)F)c(C(=O)O)n1Cc1ccc(-c2ccccc2-c2nn[nH]n2)cc1 [Example 240A]
pIC50 (AII receptor; Table 26): 6.82
minimal effective dose at 3 mg/kg (Renal Hypertensive Rats): < 3 mg/kg
minimal effective dose at 30 mg/kg (Renal Hypertensive Rats): < 30 mg/kg

CCCCc1nc(Cl)c(/C=C/C(=O)OC)n1Cc1ccc(NC(=O)c2ccccc2C(=O)O)cc1 [Example 242]
pIC50 (AII receptor; Table 25): 6.57
minimal effective dose at 10 mg/kg (Renal Hypertensive Rats): < 10 mg/kg

CCCCc1nc(Cl)c(CCC(C)=O)n1Cc1ccc(NC(=O)c2ccccc2C(=O)O)cc1 [Example 244]
pIC50 (AII receptor; Table 25): 7.06
minimal effective dose at 10 mg/kg (Renal Hypertensive Rats): < 10 mg/kg

CCCCc1nc(Cl)c(CC(C)C(=O)OC(C)C)n1Cc1ccc(NC(=O)c2ccccc2C(=O)O)cc1 (centres unmarked) [Example 246]
pIC50 (AII receptor; Table 25): 6.92
minimal effective dose at 10 mg/kg (Renal Hypertensive Rats): < 10 mg/kg

CCCCc1nc(Cl)c(CCCOC(C)=O)n1Cc1ccc(NC(=O)c2ccccc2NS(=O)(=O)C(F)(F)F)cc1 [Example 248]
pIC50 (AII receptor; Table 25): 6.60
minimal effective dose at 10 mg/kg (Renal Hypertensive Rats): < 10 mg/kg

CCCCc1nc(Cl)c(CCC(=O)N2CCOCC2)n1Cc1ccc(NC(=O)c2ccccc2C(=O)O)cc1 [Example 249]
pIC50 (AII receptor; Table 25): 7.14
minimal effective dose at 10 mg/kg (Renal Hypertensive Rats): < 10 mg/kg
minimal effective dose at 100 mg/kg (Renal Hypertensive Rats): > 100 mg/kg

CCCCc1nc(Cl)c(CCC(=O)N2CCOCC2)n1Cc1ccc(NC(=O)c2ccccc2NS(=O)(=O)C(F)(F)F)cc1 [Example 250]
pIC50 (AII receptor; Table 25): 6.92
minimal effective dose at 10 mg/kg (Renal Hypertensive Rats): < 10 mg/kg
minimal effective dose at 100 mg/kg (Renal Hypertensive Rats): > 100 mg/kg

CCCc1nc(Cl)c(C(=O)O)n1Cc1ccc(-c2ccccc2-c2nn[nH]n2)cc1 [Example 251A]
pIC50 (AII receptor; Table 26): 7.35
minimal effective dose at 3 mg/kg (Renal Hypertensive Rats): < 3 mg/kg
minimal effective dose at 30 mg/kg (Renal Hypertensive Rats): < 30 mg/kg

CCCCc1nc(Cl)c(CCC(=O)O)n1Cc1ccc(-c2ccccc2C(=O)O)cc1 [Example 264]
pIC50 (AII receptor; Table 25): 6.60
minimal effective dose at 10 mg/kg (Renal Hypertensive Rats): < 10 mg/kg
minimal effective dose at 100 mg/kg (Renal Hypertensive Rats): < 100 mg/kg

CCCc1nc(C(F)(F)F)c(C(=O)O)n1Cc1ccc(-c2ccccc2-c2nn[nH]n2)cc1 [Example 265A]
pIC50 (AII receptor; Table 26): 5.96
minimal effective dose at 3 mg/kg (Renal Hypertensive Rats): < 3 mg/kg
minimal effective dose at 30 mg/kg (Renal Hypertensive Rats): < 30 mg/kg

CCCCc1nc(C(F)(F)C(F)(F)F)c(C(=O)O)n1Cc1ccc(-c2ccccc2-c2nn[nH]n2)cc1 [Example 265B]
pIC50 (AII receptor; Table 26): 5.85
minimal effective dose at 3 mg/kg (Renal Hypertensive Rats): < 3 mg/kg
minimal effective dose at 30 mg/kg (Renal Hypertensive Rats): < 30 mg/kg

CCCc1nc(C(F)(F)F)c(C(=O)O)n1Cc1ccc(-c2ccccc2C(=O)O)cc1 [Example 265D]
pIC50 (AII receptor; Table 26): 5.96
minimal effective dose at 3 mg/kg (Renal Hypertensive Rats): < 3 mg/kg

CCCc1nc(C(F)(F)C(F)(F)F)c(C(=O)O)n1Cc1ccc(-c2ccccc2C(=O)O)cc1 [Example 265E]
pIC50 (AII receptor; Table 26): 5.80
minimal effective dose at 3 mg/kg (Renal Hypertensive Rats): < 3 mg/kg

CCCCc1nc(Cl)c(CCCC(=O)O)n1Cc1ccc(-c2ccccc2C(=O)O)cc1 [Example 265]
pIC50 (AII receptor; Table 25): 6.57
minimal effective dose at 10 mg/kg (Renal Hypertensive Rats): < 10 mg/kg
minimal effective dose at 100 mg/kg (Renal Hypertensive Rats): < 100 mg/kg

CCC/C=C\c1nc(Cl)c(CO)n1Cc1ccc(-c2ccccc2C(=O)O)cc1 [Example 266, 1-[(2-Carboxybiphenyl-4-yl)-methyl]-4-chloro-5-hydroxymethyl-2-(cis-pent-1-en-1-yl)imidazole]
pIC50 (AII receptor; Table 25): 5.64
minimal effective dose at 10 mg/kg (Renal Hypertensive Rats): < 10 mg/kg

CCCCc1nc(Cl)c(CCCF)n1Cc1ccc(-c2ccccc2C(=O)O)cc1 [Example 292]
pIC50 (AII receptor; Table 25): 6.15
minimal effective dose at 10 mg/kg (Renal Hypertensive Rats): < 10 mg/kg
minimal effective dose at 100 mg/kg (Renal Hypertensive Rats): < 100 mg/kg

CCCCc1nc(C(F)(F)F)c(C(=O)OCOC(=O)C(C)(C)C)n1Cc1ccc(-c2ccccc2-c2nn[nH]n2)cc1 [Example 314A]
pIC50 (AII receptor; Table 26): 7.19
minimal effective dose at 3 mg/kg (Renal Hypertensive Rats): < 3 mg/kg
minimal effective dose at 30 mg/kg (Renal Hypertensive Rats): < 30 mg/kg

CCCCc1nc(Cl)c(C=CCO)n1Cc1ccc(-c2ccccc2C(=O)O)cc1 [Example 314]
pIC50 (AII receptor; Table 25): 6.20
minimal effective dose at 10 mg/kg (Renal Hypertensive Rats): < 10 mg/kg
minimal effective dose at 100 mg/kg (Renal Hypertensive Rats): > 100 mg/kg

CCCCc1nc(Cl)c(C(O)c2ccccc2)n1Cc1ccc(-c2ccccc2-c2nn[nH]n2)cc1 (stereo not drawn) [Example 317A, α-[2-n-butyl-4-chloro-1-[(2'-(1H-tetrazol-5-yl)biphenyl-4-yl)methyl]imidazol-5-yl]-α-phenylmethanol]
pIC50 (AII receptor; Table 26): 6.39
minimal effective dose at 3 mg/kg (Renal Hypertensive Rats): < 3 mg/kg
minimal effective dose at 30 mg/kg (Renal Hypertensive Rats): > 30 mg/kg

CCCCc1nc(Cl)c(CO)n1Cc1ccc(-c2ccccc2C(=O)NS(=O)(=O)c2ccccc2C)cc1 [Example 319]
pIC50 (AII receptor; Table 26): 7.04
minimal effective dose at 3 mg/kg (Renal Hypertensive Rats): < 3 mg/kg
minimal effective dose at 30 mg/kg (Renal Hypertensive Rats): > 30 mg/kg

CCCc1nc(C)c(C=O)n1Cc1ccc(-c2ccccc2C(=O)O)cc1 [Example 320, 1-[(2'-Carboxybiphenyl-4-yl)methyl]-4-methyl-2-propylimidazole-5-carboxaldehyde]
pIC50 (AII receptor; Table 26): 6.06
minimal effective dose at 3 mg/kg (Renal Hypertensive Rats): < 3 mg/kg
minimal effective dose at 30 mg/kg (Renal Hypertensive Rats): < 30 mg/kg

CCCc1nc(C)c(CO)n1Cc1ccc(-c2ccccc2C(=O)O)cc1 [Example 321, 1-[(2'-Carboxybiphenyl-4-yl)methyl]-5-hydroxymethyl-4-methyl-2-propylimidazole.hydrochloride]
pIC50 (AII receptor; Table 26): 5.74
minimal effective dose at 3 mg/kg (Renal Hypertensive Rats): < 3 mg/kg
minimal effective dose at 30 mg/kg (Renal Hypertensive Rats): > 30 mg/kg

CCCCc1nc(Cl)c(CO)n1-c1ccc(NC(=O)c2ccccc2NS(=O)(=O)C(F)(F)F)cc1 [Example 325, 2-n-Butyl-4-chloro-5-hydroxymethyl-1-[4-((N-trifluoromethanesulfonyl)-anthranilamido)phenyl]imidazole]
pIC50 (AII receptor; Table 25): 6.14
minimal effective dose at 10 mg/kg (Renal Hypertensive Rats): < 10 mg/kg

CCCCc1ncc(CO)n1-c1ccc(NC(=O)c2ccccc2NS(=O)(=O)C(F)(F)F)cc1 [Example 326, 2-n-butyl-5-hydroxymethyl-1-[4-((N-trifluoromethanesulfonyl)anthranilamido)phenyl]imidazole]
pIC50 (AII receptor; Table 25): 6.10
minimal effective dose at 10 mg/kg (Renal Hypertensive Rats): < 10 mg/kg
